Reference: PubChem BioAssay (NCI)
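Five compound concentrations were applied to cells in 96-well plates for 48 hours; endpoints were derived by simple linear interpolation of the resulting dose-response curve. GI50: concentration for 50% inhibition of growth. TGI: concentration producing complete growth inhibition.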 The source made the active and inactive calls. Rule as the data show it: active = GI50 below about 0.43 µM; inactive = the rest.

Tests used:
Test in all cases: NCI tumour cell line growth inhibition, 48 h
UO-31 renal = tested on: UO-31 renal
DU-145 prostate = tested on: DU-145 prostate
U251 CNS = tested on: U251 CNS
NCI-H460 lung = tested on: NCI-H460 lung
HOP-62 NSCLC = tested on: HOP-62 NSCLC
TK-10 renal = tested on: TK-10 renal
NCI/ADR-RES ovarian = tested on: NCI/ADR-RES ovarian
MDA-MB-231 breast = tested on: MDA-MB-231 breast
MALME-3M melanoma = tested on: MALME-3M melanoma
SR leukemia = tested on: SR leukemia
OVCAR-5 ovarian = tested on: OVCAR-5 ovarian
UACC-257 melanoma = tested on: UACC-257 melanoma
RPMI-8226 leukemia = tested on: RPMI-8226 leukemia
786-0 renal = tested on: 786-0 renal
BT-549 breast = tested on: BT-549 breast
MCF7 breast = tested on: MCF7 breast
OVCAR-3 ovarian = tested on: OVCAR-3 ovarian
RXF 393 renal = tested on: RXF 393 renal
K-562 leukemia = tested on: K-562 leukemia
M14 melanoma = tested on: M14 melanoma
HCC-2998 colon = tested on: HCC-2998 colon
ACHN renal = tested on: ACHN renal
MDA-MB-435 = tested on: MDA-MB-435
MOLT-4 leukemia = tested on: MOLT-4 leukemia
CCRF-CEM leukemia = tested on: CCRF-CEM leukemia
HCT-116 colon = tested on: HCT-116 colon
HT29 colon = tested on: HT29 colon
SNB-19 CNS = tested on: SNB-19 CNS
SNB-75 CNS = tested on: SNB-75 CNS
A498 renal = tested on: A498 renal
SF-268 CNS = tested on: SF-268 CNS
SF-539 CNS = tested on: SF-539 CNS
OVCAR-4 ovarian = tested on: OVCAR-4 ovarian
SK-MEL-5 melanoma = tested on: SK-MEL-5 melanoma
A549 NSCLC = tested on: A549 NSCLC
UACC-62 melanoma = tested on: UACC-62 melanoma
T-47D breast = tested on: T-47D breast
SF-295 CNS = tested on: SF-295 CNS
HCT-15 colon = tested on: HCT-15 colon
SK-MEL-28 melanoma = tested on: SK-MEL-28 melanoma
SW-620 colon = tested on: SW-620 colon
LOX IMVI melanoma = tested on: LOX IMVI melanoma
SK-MEL-2 melanoma = tested on: SK-MEL-2 melanoma
CAKI-1 renal = tested on: CAKI-1 renal
SN12C renal = tested on: SN12C renal
NCI-H522 lung = tested on: NCI-H522 lung
NCI-H23 lung = tested on: NCI-H23 lung
EKVX NSCLC = tested on: EKVX NSCLC
KM12 colon = tested on: KM12 colon
SK-OV-3 ovarian = tested on: SK-OV-3 ovarian
NCI-H226 lung = tested on: NCI-H226 lung
COLO 205 colon = tested on: COLO 205 colon
PC-3 prostate = tested on: PC-3 prostate
HL-60(TB) leukemia = tested on: HL-60(TB) leukemia
IGROV1 ovarian = tested on: IGROV1 ovarian
OVCAR-8 ovarian = tested on: OVCAR-8 ovarian
HOP-92 NSCLC = tested on: HOP-92 NSCLC

COc1cccc2c1/c(=C/c1ccc(N(C)C)cc1)c1cc(-c3ccccc3)[n+](C)n12
TGI (UO-31 renal): 802 nM
TGI (DU-145 prostate): 1.75 µM
TGI (U251 CNS): 1.32 µM
TGI (NCI-H460 lung): 0.949 µM
TGI (HOP-62 NSCLC): 2.08 µM
TGI (TK-10 renal): 1.03 µM
TGI (NCI/ADR-RES ovarian): > 100 µM
TGI (MDA-MB-231 breast): 2.2 µM
TGI (MALME-3M melanoma): 684 nM
TGI (SR leukemia): 899 nM
TGI (OVCAR-5 ovarian): 1.66 µM
TGI (UACC-257 melanoma): 0.692 µM
TGI (RPMI-8226 leukemia): 1.27 µM
TGI (786-0 renal): 1.1 µM
TGI (BT-549 breast): 0.774 µM
TGI (MCF7 breast): 1290 nM
TGI (OVCAR-3 ovarian): 1.5 µM
TGI (RXF 393 renal): 1.94 µM
TGI (K-562 leukemia): 1390 nM
TGI (M14 melanoma): 1.08 µM
TGI (HCC-2998 colon): 1080 nM
TGI (ACHN renal): 0.8 µM
TGI (MDA-MB-435): 1.65 µM
TGI (MOLT-4 leukemia): 0.623 µM
TGI (CCRF-CEM leukemia): 1450 nM
TGI (HCT-116 colon): 765 nM
TGI (HT29 colon): 0.129 µM
TGI (SNB-19 CNS): 1.72 µM
TGI (SNB-75 CNS): 0.997 µM
TGI (A498 renal): 1.3 µM
TGI (SF-268 CNS): 1.37 µM
TGI (SF-539 CNS): 14.9 µM
TGI (OVCAR-4 ovarian): 3.16 µM
TGI (SK-MEL-5 melanoma): 0.312 µM
TGI (A549 NSCLC): 2.5 µM

CCOP(=O)(C/C=C\Cn1cnc(C(N)=O)c1N)OCC
GI50 (UACC-62 melanoma): 25.7 µM
TGI (UACC-62 melanoma): 75.8 µM

COCn1cnc2c(=O)n(-c3ccc(OC)cc3)c(=S)n(-c3ccc(OC)cc3)c21
TGI (UO-31 renal): > 100000 nM
TGI (T-47D breast): > 100 µM
TGI (SF-295 CNS): > 100 µM
TGI (DU-145 prostate): > 100 µM
TGI (U251 CNS): > 100 µM
TGI (NCI-H460 lung): > 100 µM
TGI (HOP-62 NSCLC): > 100 µM
TGI (TK-10 renal): > 100 µM
TGI (NCI/ADR-RES ovarian): > 100 µM
TGI (MDA-MB-231 breast): > 100 µM
TGI (HCT-15 colon): > 100 µM
TGI (SK-MEL-28 melanoma): > 100 µM
TGI (SW-620 colon): > 100 µM
TGI (SR leukemia): > 100000 nM
TGI (LOX IMVI melanoma): > 100 µM
TGI (OVCAR-5 ovarian): > 100 µM
TGI (UACC-257 melanoma): > 100 µM
TGI (SK-MEL-2 melanoma): > 100 µM
TGI (CAKI-1 renal): > 100 µM
TGI (SN12C renal): > 100 µM
TGI (RPMI-8226 leukemia): > 100 µM
TGI (786-0 renal): > 100 µM
TGI (NCI-H522 lung): > 100 µM
TGI (BT-549 breast): > 100 µM
TGI (NCI-H23 lung): > 100 µM
TGI (MCF7 breast): > 100000 nM
TGI (OVCAR-3 ovarian): > 100 µM
TGI (RXF 393 renal): > 100 µM
TGI (UACC-62 melanoma): > 100 µM
TGI (EKVX NSCLC): > 100 µM
TGI (KM12 colon): > 100 µM
TGI (K-562 leukemia): > 100000 nM
TGI (M14 melanoma): > 100 µM
TGI (HCC-2998 colon): > 100000 nM
TGI (SK-OV-3 ovarian): > 100 µM
TGI (ACHN renal): > 100 µM
TGI (MDA-MB-435): > 100 µM
TGI (MOLT-4 leukemia): > 100 µM
TGI (CCRF-CEM leukemia): > 100000 nM
TGI (HCT-116 colon): > 100000 nM
TGI (HT29 colon): > 100 µM
TGI (SNB-75 CNS): > 100 µM
TGI (NCI-H226 lung): > 100 µM
TGI (A498 renal): > 100 µM
TGI (SF-268 CNS): > 100 µM
TGI (COLO 205 colon): > 100 µM
TGI (SF-539 CNS): > 100 µM
TGI (PC-3 prostate): > 100 µM
TGI (OVCAR-4 ovarian): > 100 µM
TGI (HL-60(TB) leukemia): > 100 µM
TGI (IGROV1 ovarian): > 100 µM
TGI (OVCAR-8 ovarian): > 100 µM
TGI (SK-MEL-5 melanoma): > 100 µM
TGI (A549 NSCLC): > 100 µM

CN(C(=O)C1CCCCCC1=O)c1ccccc1Cl (stereo not drawn)
TGI (UO-31 renal): > 100000 nM
TGI (T-47D breast): > 100 µM
TGI (SF-295 CNS): > 100 µM
TGI (DU-145 prostate): > 100 µM
TGI (U251 CNS): > 100 µM
TGI (NCI-H460 lung): > 100 µM
TGI (HOP-62 NSCLC): > 100 µM
TGI (TK-10 renal): > 100 µM
TGI (NCI/ADR-RES ovarian): > 100 µM
TGI (MDA-MB-231 breast): > 100 µM
TGI (MALME-3M melanoma): > 100000 nM
TGI (HCT-15 colon): > 100 µM
TGI (SK-MEL-28 melanoma): > 100 µM
TGI (SW-620 colon): > 100 µM
TGI (LOX IMVI melanoma): > 100 µM
TGI (OVCAR-5 ovarian): > 100 µM
TGI (UACC-257 melanoma): > 100 µM
TGI (CAKI-1 renal): > 100 µM
TGI (SN12C renal): > 100 µM
TGI (RPMI-8226 leukemia): > 100 µM
TGI (786-0 renal): > 100 µM
TGI (NCI-H522 lung): > 100 µM
TGI (BT-549 breast): > 100 µM
TGI (NCI-H23 lung): > 100 µM
TGI (OVCAR-3 ovarian): > 100 µM
TGI (RXF 393 renal): > 100 µM
TGI (EKVX NSCLC): > 100 µM
TGI (KM12 colon): > 100 µM
TGI (HOP-92 NSCLC): > 100 µM
TGI (M14 melanoma): > 100 µM
TGI (SK-OV-3 ovarian): > 100 µM
TGI (ACHN renal): > 100 µM
TGI (MDA-MB-435): > 100 µM
TGI (MOLT-4 leukemia): > 100 µM
TGI (HCT-116 colon): > 100000 nM
TGI (HT29 colon): > 100 µM
TGI (SNB-19 CNS): > 100 µM
TGI (SNB-75 CNS): > 100 µM
TGI (NCI-H226 lung): > 100 µM
TGI (A498 renal): > 100 µM
TGI (SF-268 CNS): > 100 µM
TGI (COLO 205 colon): > 100 µM
TGI (SF-539 CNS): > 100 µM
TGI (OVCAR-4 ovarian): > 100 µM
TGI (IGROV1 ovarian): > 100 µM
TGI (OVCAR-8 ovarian): > 100 µM
TGI (SK-MEL-5 melanoma): > 100 µM
TGI (A549 NSCLC): > 100 µM

NC(N)=N/N=C/c1c(-c2cc([N+](=O)[O-])c(Cl)cc2Cl)nc2sccn12
TGI (UO-31 renal): 2600 nM
TGI (HOP-62 NSCLC): 3.44 µM
TGI (NCI/ADR-RES ovarian): > 100 µM
TGI (SK-MEL-28 melanoma): 2.67 µM
TGI (OVCAR-5 ovarian): 3.39 µM
TGI (CAKI-1 renal): 33.7 µM
TGI (786-0 renal): 3.11 µM
GI50 (HCC-2998 colon): 1360 nM
TGI (HCC-2998 colon): 2760 nM
TGI (SK-OV-3 ovarian): 3.39 µM
GI50 (HCT-116 colon): 272 nM
TGI (HCT-116 colon): 1020 nM
GI50 (HT29 colon): 1790 nM
TGI (HT29 colon): 3.18 µM
GI50 (SNB-19 CNS): 274 nM
TGI (SNB-19 CNS): 56.3 µM
GI50 (COLO 205 colon): 1380 nM
TGI (COLO 205 colon): 2.84 µM
TGI (HL-60(TB) leukemia): 4.31 µM
GI50 (IGROV1 ovarian): 712 nM
TGI (IGROV1 ovarian): 2.03 µM

O=c1[nH]c(C2CCCCC2)nc2c(Cl)cccc12
outcome (SR leukemia): inactive
outcome (RPMI-8226 leukemia): inactive
outcome (MOLT-4 leukemia): inactive
